Measurements as given in PubChem BioAssay AID330 (DTP/NCI, 2004).
Several values for one entry are separate records, joined by “and”; a condition that tells them apart may be missing. Equal values may be shown once. Inconclusive results and toxic doses are left out.

Tested on: P388 leukemia ip, CD2F1 mice, survival T/C
Assay: NCI In Vivo Anticancer Drug Screen. Data for tumor model P388 Leukemia (intraperitoneal) in CD2F1 (CDF1) mice
Settings: endpoint: median survival time, higher = longer survival
Outline: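 Mice carrying the transplanted tumor received test compound or vehicle. Survival was recorded in each group, and the value is the treated-group measurement divided by that of the vehicle-treated control group.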

[1] = dose: 50.0 mg/kg/injection, schedule: Q01DX009 (ip), vehicle: Klucel (hydroxypropylcellulose) (HPC)

With `N[C@H](C(=O)O)[C@@H]1CC(Cl)=NO1` the T/C (dose: 0.03 mg/kg/injection, schedule: Q01DX009 (ip), vehicle: saline) was 105 % of control and 108 % of control, the T/C (dose: 0.06 mg/kg/injection, schedule: Q01DX009 (ip), vehicle: saline) was 113 % of control and the T/C (dose: 0.13 mg/kg/injection, schedule: Q01DX009 (ip), vehicle: saline) was 120 % of control. The T/C (dose: 0.25 mg/kg/injection, schedule: Q01DX009 (ip), vehicle: saline) was 150 % of control, the T/C (dose: 0.5 mg/kg/injection, schedule: Q01DX009 (ip), vehicle: saline) was 155 % of control and the T/C (dose: 0.63 mg/kg/injection, schedule: Q01DX009 (ip), vehicle: saline) was 174 % of control. The T/C (dose: 0.75 mg/kg/injection, schedule: Q01DX009 (ip), vehicle: saline) was 155 % of control, the T/C (dose: 1.0 mg/kg/injection, schedule: Q01DX009 (ip), vehicle: saline) was 150 % of control and 171 % of control and the T/C (dose: 1.0 mg/kg/injection, schedule: Q01DX009 (ip), vehicle: water) was 121 % of control. For the same compound, the T/C (dose: 1.25 mg/kg/injection, schedule: Q01DX009 (ip), vehicle: saline) was 213 % of control, the T/C (dose: 1.94 mg/kg/injection, schedule: Q01DX009 (ip), vehicle: saline) was 165 % of control and 179 % of control and 192 % of control and the T/C (dose: 2.0 mg/kg/injection, schedule: Q01DX005 (ip), vehicle: saline) was 119 % of control. For the same compound, the T/C (dose: 2.0 mg/kg/injection, schedule: Q01DX005 (ip), vehicle: water) was 111 % of control, the T/C (dose: 2.0 mg/kg/injection, schedule: Q01DX005 (iv), vehicle: saline) was 119 % of control and the T/C (dose: 2.0 mg/kg/injection, schedule: Q01DX009 (ip), vehicle: saline) was 152 % of control and 164 % of control and 198 % of control. The T/C (dose: 2.0 mg/kg/injection, schedule: Q01DX009 (ip), vehicle: water) was 153 % of control, the T/C (dose: 2.3 mg/kg/injection, schedule: Q01DX009 (ip), vehicle: saline) was 190 % of control and the T/C (dose: 2.5 mg/kg/injection, schedule: Q01DX009 (ip), vehicle: saline) was 235 % of control. For the same compound, the T/C (dose: 3.0 mg/kg/injection, schedule: Q01DX005 (iv), vehicle: saline) was 119 % of control, the T/C (dose: 3.0 mg/kg/injection, schedule: Q01DX009 (ip), vehicle: saline) was 175 % of control and 180 % of control and 238 % of control and the T/C (dose: 3.12 mg/kg/injection, schedule: Q01DX005 (ip), vehicle: water) was 155 % of control. For the same compound, the T/C (dose: 3.24 mg/kg/injection, schedule: Q01DX009 (ip), vehicle: saline) was 177 % of control and 189 % of control and 203 % of control, the T/C (dose: 3.5 mg/kg/injection, schedule: Q01DX009 (ip), vehicle: saline) was 194 % of control and the T/C (dose: 4.0 mg/kg/injection, schedule: Q01DX005 (ip), vehicle: saline) was 161 % of control. The T/C (dose: 4.0 mg/kg/injection, schedule: Q01DX005 (iv), vehicle: saline) was 119 % of control, the T/C (dose: 4.0 mg/kg/injection, schedule: Q01DX009 (ip), vehicle: saline) was 161 % of control and 190 % of control and the T/C (dose: 4.0 mg/kg/injection, schedule: Q01DX009 (ip), vehicle: water) was 112 % of control. The T/C (dose: 4.32 mg/kg/injection, schedule: Q01DX005 (ip), vehicle: saline) was 154 % of control, the T/C (dose: 5.0 mg/kg/injection, schedule: Q01DX005 (ip), vehicle: saline) was 158 % of control and the T/C (dose: 5.0 mg/kg/injection, schedule: Q01DX009 (ip), vehicle: saline) was 235 % of control. For the same compound, the T/C (dose: 5.3 mg/kg/injection, schedule: Q01DX009 (ip), vehicle: saline) was 203 % of control, the T/C (dose: 5.4 mg/kg/injection, schedule: Q01DX009 (ip), vehicle: saline) was 163 % of control and 188 % of control and 204 % of control and the T/C (dose: 6.0 mg/kg/injection, schedule: Q01DX009 (ip), vehicle: saline) was 173 % of control and 186 % of control and 319 % of control. For the same compound, the T/C (dose: 6.25 mg/kg/injection, schedule: Q01DX005 (ip), vehicle: water) was 150 % of control and 168 % of control, the T/C (dose: 7.2 mg/kg/injection, schedule: Q01DX005 (ip), vehicle: saline) was 156 % of control and the T/C (dose: 8.0 mg/kg/injection, schedule: Q01DX005 (ip), vehicle: saline) was 171 % of control and 182 % of control. The T/C (dose: 8.0 mg/kg/injection, schedule: Q01DX005 (iv), vehicle: saline) was 119 % of control, the T/C (dose: 8.0 mg/kg/injection, schedule: Q01DX009 (ip), vehicle: saline) was 186 % of control and 210 % of control and the T/C (dose: 8.0 mg/kg/injection, schedule: Q01DX009 (ip), vehicle: water) was 184 % of control. The T/C (dose: 9.0 mg/kg/injection, schedule: Q01DX009 (ip), vehicle: saline) was 99 % of control, the T/C (dose: 10.0 mg/kg/injection, schedule: Q01DX005 (ip), vehicle: saline) was 164 % of control and the T/C (dose: 12.0 mg/kg/injection, schedule: Q01DX005 (ip), vehicle: saline) was 220 % of control. The T/C (dose: 12.0 mg/kg/injection, schedule: Q01DX005 (iv), vehicle: saline) was 171 % of control, the T/C (dose: 12.5 mg/kg/injection, schedule: Q01DX005 (ip), vehicle: water) was 155 % of control and 182 % of control and the T/C (dose: 15.0 mg/kg/injection, schedule: Q01DX009 (ip), vehicle: saline) was 98 % of control and 100 % of control. The T/C (dose: 16.0 mg/kg/injection, schedule: Q01DX005 (ip), vehicle: saline) was 164 % of control and 181 % of control, the T/C (dose: 16.0 mg/kg/injection, schedule: Q01DX005 (ip), vehicle: water) was 152 % of control and 163 % of control and the T/C (dose: 16.0 mg/kg/injection, schedule: Q01DX009 (ip), vehicle: saline) was 102 % of control and 218 % of control. The T/C (dose: 16.0 mg/kg/injection, schedule: Q01DX009 (ip), vehicle: water) was 198 % of control, the T/C (dose: 20.0 mg/kg/injection, schedule: Q01DX005 (ip), vehicle: saline) was 169 % of control and 176 % of control and the T/C (dose: 20.0 mg/kg/injection, schedule: Q04DX003 (ip), vehicle: saline) was 158 % of control. For the same compound, the T/C (dose: 24.0 mg/kg/injection, schedule: Q01DX005 (ip), vehicle: saline) was 222 % of control, the T/C (dose: 24.0 mg/kg/injection, schedule: Q01DX005 (iv), vehicle: saline) was 108 % of control and the T/C (dose: 25.0 mg/kg/injection, schedule: Q01DX005 (ip), vehicle: water) was 155 % of control and 187 % of control. For the same compound, the T/C (dose: 32.0 mg/kg/injection, schedule: Q01DX005 (ip), vehicle: saline) was 225 % of control, the T/C (dose: 32.0 mg/kg/injection, schedule: Q01DX005 (ip), vehicle: water) was 170 % of control and the T/C (dose: 40.0 mg/kg/injection, schedule: Q04DX003 (ip), vehicle: saline) was 180 % of control and 196 % of control. The T/C (dose: 50.0 mg/kg/injection, schedule: Q04DX003 (ip), vehicle: other) was 163 % of control, the T/C (dose: 80.0 mg/kg/injection, schedule: Q04DX003 (ip), vehicle: saline) was 150 % of control and 190 % of control and 297 % of control and the T/C (dose: 100.0 mg/kg/injection, schedule: Q04DX003 (ip), vehicle: other) was 161 % of control. For the same compound, the T/C (dose: 160.0 mg/kg/injection, schedule: Q04DX003 (ip), vehicle: saline) was 118 % of control and 164 % of control and 250 % of control.
`Nc1c(C(=O)NCc2ccccc2)c2nc3c(C(=O)NCc4ccccc4)ccc(Br)c3oc-2c(Br)c1=O` was tested, and the T/C (dose: 50.0 mg/kg/injection, schedule: Q01DX005 (ip), vehicle: saline with Tween-80) was 98 % of control, the T/C (dose: 100.0 mg/kg/injection, schedule: Q01DX005 (ip), vehicle: saline with Tween-80) was 86 % of control and the T/C (dose: 200.0 mg/kg/injection, schedule: Q01DX005 (ip), vehicle: saline with Tween-80) was 89 % of control.
With `COC12C(COC(=O)NCCO)C3=C(C(=O)C(C)=C(N)C3=O)N1CC1NC12` (configuration not stated) the T/C (dose: 3.12 mg/kg/injection, schedule: Q01DX009 (ip), vehicle: Klucel (hydroxypropylcellulose) (HPC)) was 122 % of control, the T/C (dose: 3.13 mg/kg/injection, schedule: Q01DX009 (ip), vehicle: Klucel (hydroxypropylcellulose) (HPC)) was 169 % of control and the T/C (dose: 4.5 mg/kg/injection, schedule: Q01DX009 (ip), vehicle: Klucel (hydroxypropylcellulose) (HPC)) was 155 % of control. The T/C (dose: 6.25 mg/kg/injection, schedule: Q01DX009 (ip), vehicle: Klucel (hydroxypropylcellulose) (HPC)) was 163 % of control and 175 % of control, the T/C (dose: 9.0 mg/kg/injection, schedule: Q01DX009 (ip), vehicle: Klucel (hydroxypropylcellulose) (HPC)) was 190 % of control and the T/C (dose: 12.5 mg/kg/injection, schedule: Q01DX009 (ip), vehicle: Klucel (hydroxypropylcellulose) (HPC)) was 160 % of control and 212 % of control. For the same compound, the T/C (dose: 18.0 mg/kg/injection, schedule: Q01DX009 (ip), vehicle: Klucel (hydroxypropylcellulose) (HPC)) was 192 % of control and 201 % of control and 238 % of control, the T/C (dose: 25.0 mg/kg/injection, schedule: Q01DX009 (ip), vehicle: Klucel (hydroxypropylcellulose) (HPC)) was 211 % of control and 214 % of control and the T/C (dose: 28.0 mg/kg/injection, schedule: Q01DX009 (ip), vehicle: Klucel (hydroxypropylcellulose) (HPC)) was 181 % of control and 182 % of control. For the same compound, the T/C (dose: 43.0 mg/kg/injection, schedule: Q01DX009 (ip), vehicle: Klucel (hydroxypropylcellulose) (HPC)) was 92 % of control and the T/C [1] was 104 % of control.
`CC(=O)OC(C)C(=O)NCC(C)O` (configuration not stated) was tested, and the T/C (dose: 25.0 mg/kg/injection, schedule: Q01DX005 (ip), vehicle: saline) was 100 % of control, the T/C (dose: 50.0 mg/kg/injection, schedule: Q01DX005 (ip), vehicle: saline) was 103 % of control and the T/C (dose: 100.0 mg/kg/injection, schedule: Q01DX005 (ip), vehicle: saline) was 98 % of control. For the same compound, the T/C (dose: 200.0 mg/kg/injection, schedule: Q01DX005 (ip), vehicle: saline) was 100 % of control.
For `CC1CC(c2ccccc2)C(c2ccc(Cl)cc2)C(=O)O1` (configuration not stated), the T/C [1] was 96 % of control, the T/C (dose: 100.0 mg/kg/injection, schedule: Q01DX009 (ip), vehicle: Klucel (hydroxypropylcellulose) (HPC)) was 100 % of control and the T/C (dose: 200.0 mg/kg/injection, schedule: Q01DX009 (ip), vehicle: Klucel (hydroxypropylcellulose) (HPC)) was 100 % of control.
